Key:
[1] = target: T1, Serine/threonine-protein kinase B-raf (Homo sapiens, UniProt P15056); assay: Inhibition of B-Raf
[2] = target: T1, Serine/threonine-protein kinase B-raf; assay: Inhibition of B-Raf-mediated ERK phosphorylation in cell-based assay
[3] = Apparent permeability from apical to basolateral side in human Caco2 cells; format: ADME, cell-based; conditions: caco-2
Caco-2 = assay: Efflux ratio of apparent permeability from […] in human Caco2 cells; format: ADME, cell-based
[4] = AUC in CD-1 mouse at 25 mg/kg, po; format: ADME, organism-based; parameters: dose 25 mg/kg, route oral; conditions: plasma
[5] = Clearance in CD-1 mouse at 2.5 mg/kg, iv; format: ADME, organism-based; parameters: dose 2.5 mg/kg, route intravenous; conditions: in vivo
[6] = Volume of distribution at steady state in CD-1 mouse at 2.5 mg/kg, iv; format: ADME, organism-based; parameters: dose 2.5 mg/kg, route intravenous; conditions: in vivo, read-out: Vdss
[7] = AUC in CD-1 mouse at 2.5 mg/kg, iv; format: ADME, organism-based; parameters: dose 2.5 mg/kg, route intravenous; conditions: plasma
[8] = AUC in CD-1 mouse at 50 mg/kg, po; format: ADME, organism-based; parameters: dose 50 mg/kg, route oral; conditions: plasma
[9] = AUC in CD-1 mouse at 100 mg/kg, po; format: ADME, organism-based; parameters: dose 100 mg/kg, route oral; conditions: plasma

T1 sequence (P15056 whole entry): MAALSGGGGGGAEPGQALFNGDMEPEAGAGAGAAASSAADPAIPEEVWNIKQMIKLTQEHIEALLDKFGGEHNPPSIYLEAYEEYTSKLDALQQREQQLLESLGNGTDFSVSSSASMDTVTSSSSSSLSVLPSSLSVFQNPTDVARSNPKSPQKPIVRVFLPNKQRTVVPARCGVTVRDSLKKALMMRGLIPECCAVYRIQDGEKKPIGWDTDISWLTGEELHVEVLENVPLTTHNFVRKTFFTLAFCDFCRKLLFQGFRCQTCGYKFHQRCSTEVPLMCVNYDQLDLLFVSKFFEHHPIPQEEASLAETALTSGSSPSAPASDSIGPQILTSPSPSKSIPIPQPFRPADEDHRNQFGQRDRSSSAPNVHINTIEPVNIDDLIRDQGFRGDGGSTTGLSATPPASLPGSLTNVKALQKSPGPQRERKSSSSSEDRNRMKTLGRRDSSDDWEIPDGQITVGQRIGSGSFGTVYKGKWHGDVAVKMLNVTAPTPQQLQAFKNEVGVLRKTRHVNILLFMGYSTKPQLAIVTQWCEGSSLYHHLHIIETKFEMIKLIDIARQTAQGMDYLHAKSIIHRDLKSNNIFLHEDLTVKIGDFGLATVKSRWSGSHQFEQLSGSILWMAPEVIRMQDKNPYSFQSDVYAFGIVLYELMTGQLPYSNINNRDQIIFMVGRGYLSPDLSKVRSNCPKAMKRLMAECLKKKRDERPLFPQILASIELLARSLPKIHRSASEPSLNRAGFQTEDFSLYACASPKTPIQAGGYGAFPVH

Compound	IC50 [1]	IC50 [2]	other results
Cn1cc(-c2ccc3cc[nH]c3c2)c(-c2ccncc2)n1	328 nM		
Cn1cc(N)c(-c2ccncc2)n1	> 1000 nM		
Cn1cc(-c2ccc3c(O)cccc3c2)c(-c2ccncc2)n1	1.4 nM		
Cn1cc(-c2ccc3[nH]ccc3c2)c(-c2ccncc2)n1	861 nM		
c1cc(-c2nn(C3CC4CCC(C3)N4)cc2-c2ccc3c(c2)Cc2c[nH]nc2-3)ccn1 (configuration not stated)	0.57 nM	262 nM	
Cn1cc(-c2ccc3cn[nH]c3c2)c(-c2ccncc2)n1	139 nM		
CNC(=O)c1ccc(-c2cn(C)nc2-c2ccncc2)cc1	647 nM		
Cn1cc(-c2ccc3cc(O)ccc3c2)c(-c2ccncc2)n1	77 nM		
Cn1cc(-c2cccc3[nH]ncc23)c(-c2ccncc2)n1	468 nM		
Cn1cc(-c2ccc3[nH]ncc3c2)c(-c2ccncc2)n1	> 1000 nM		
Cn1cc(-c2ccc(S(N)(=O)=O)cc2)c(-c2ccncc2)n1	> 1000 nM		
Cn1cc(-c2ccc(-c3cc[nH]c3)cc2)c(-c2ccncc2)n1	788 nM		
CCc1c[nH]nc1-c1ccc(-c2cn(C)nc2-c2ccncc2)cc1	> 1000 nM		
Cn1cc(O)c(-c2ccncc2)n1	> 1000 nM		
Cn1cc(-c2ccc(-c3c[nH]nn3)cc2)c(-c2ccncc2)n1	55 nM		

Second part, led by results:

IC50 [1]	IC50 [2]	Compound	other results
> 1000 nM		Cn1cc(-c2ccc3c(c2)CCc2n[nH]cc2-3)c(-c2ccncc2)n1	
4.9 nM	4870 nM	O[C@@H]1CNCC[C@H]1n1cc(-c2ccc3c(c2)Cc2c[nH]nc2-3)c(-c2ccncc2)n1	
8 nM	886 nM	CN1CCC(n2cc(-c3ccc4c(c3)Cc3c[nH]nc3-4)c(-c3ccncc3)n2)CC1	
3.7 nM	1670 nM	c1cc(-c2nn(C3CCCNC3)cc2-c2ccc3c(c2)Cc2c[nH]nc2-3)ccn1 (configuration not stated)	
5 nM	619 nM	c1cc(-c2nn(C3CC4COCC(C3)N4)cc2-c2ccc3c(c2)Cc2c[nH]nc2-3)ccn1 (configuration not stated)	
	230 nM	c1cc(-c2nn(C3CCNCC3)cc2-c2ccc3c(c2)Cc2c[nH]nc2-3)ccn1	Papp A→B [3]: 1.88 ×10⁻⁶ cm/s; Ratio (Caco-2): 6.17
94 nM		Cn1cc(-c2ccc3c(c2)CNC3=O)c(-c2ccncc2)n1	
22.9 nM	1520 nM	N[C@H]1CC[C@@H](n2cc(-c3ccc4c(c3)Cc3c[nH]nc3-4)c(-c3ccncc3)n2)CC1	
3.2 nM	2120 nM	F[C@H]1CCNC[C@H]1n1cc(-c2ccc3c(c2)Cc2c[nH]nc2-3)c(-c2ccncc2)n1	
1.4 nM	700 nM	F[C@@H]1CNCC[C@H]1n1cc(-c2ccc3c(c2)Cc2c[nH]nc2-3)c(-c2ccncc2)n1 (stereo in doubt; 38)	Papp A→B [3]: 11.4 ×10⁻⁶ cm/s; AUC [4]: 5160 ng·h/mL; clearance [5]: 91.1 mL/min/kg; Ratio (Caco-2): 1.55; Vd [6]: 8.74 L/kg; AUC [7]: 406 ng·h/mL; AUC [8]: 13400 ng·h/mL; AUC [9]: 38800 ng·h/mL
3.2 nM	1540 nM	c1cc(-c2nn(C3CCCNCC3)cc2-c2ccc3c(c2)Cc2c[nH]nc2-3)ccn1 (configuration not stated)	
7 nM		Cc1c[nH]nc1-c1ccc(-c2cn(C)nc2-c2ccncc2)cc1	
1.6 nM	532 nM	F[C@@H]1CNCC[C@H]1n1cc(-c2ccc3c(c2)Cc2c[nH]nc2-3)c(-c2ccncc2)n1 (stereo in doubt; 41)	
4.6 nM	4370 nM	c1ccc(-n2cc(-c3ccc4c(c3)Cc3c[nH]nc3-4)c(-c3ccncc3)n2)cc1	
23 nM		Cn1cc(-c2ccc3c(c2)CCc2c[nH]nc2-3)c(-c2ccncc2)n1	
2 nM	607 nM	O[C@@H]1CCC[C@H](n2cc(-c3ccc4c(c3)Cc3c[nH]nc3-4)c(-c3ccncc3)n2)C1	
72.5 nM	8160 nM	CNCCn1cc(-c2ccc3c(c2)Cc2c[nH]nc2-3)c(-c2ccncc2)n1	
0.66 nM	396 nM	N[C@H]1CC[C@H](n2cc(-c3ccc4c(c3)Cc3c[nH]nc3-4)c(-c3ccncc3)n2)CC1	
11 nM		Cn1cc(-c2ccc3c(c2)Cc2n[nH]nc2-3)c(-c2ccncc2)n1	
3.8 nM	407 nM	F[C@H]1CNCC[C@H]1n1cc(-c2ccc3c(c2)Cc2c[nH]nc2-3)c(-c2ccncc2)n1	
1.25 nM	672 nM	F[C@H]1CNCC[C@@H]1n1cc(-c2ccc3c(c2)Cc2c[nH]nc2-3)c(-c2ccncc2)n1	
